Some test systems named below: A549 NSCLC; HCT-116 colon; HOP-62 NSCLC; HS 578T breast; HT29 colon; K-562 leukemia; MDA-MB-231 breast; MDA-MB-435; PC-3 prostate; SF-539 CNS; SK-OV-3 ovarian; A498 renal; U251 CNS.
What all share (test): NCI anticancer screen, dose series, 48 h

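Cultured in 96-well plates, cells were exposed to test compound for 48 hours across five concentrations. The concentration for full growth arrest is given as TGI.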 Where a SMILES comes first, the peptide text is derived from it. [ ]: non-standard residue; d: D form. The star is where a group is joined. ξ: configuration not given here. X37 = O=C(OCc1ccccc1)[C@@H]1CCC[C@H]1N*; Fmoc = O=C(OCC1c2ccccc2-c2ccccc21)*; ξW = NC(Cc1c[nH]c2ccccc12)C(=O)O; ξF = NC(Cc1ccccc1)C(=O)O; Boc = CC(C)(C)OC(=O)*; ξK = NCCCCC(N)C(=O)O; ξT = CC(O)C(N)C(=O)O; tBu = CC(C)(C)* Where only a bound is given, the exact number is not on record here.

With `CC(=O)OCc1ccc(-c2nc(C#N)c(N)o2)o1`, the TGI with A549 NSCLC, in the test with HCT-116 colon, with HOP-62 NSCLC, in the test with HS 578T breast, in the test on HT29 colon and in the test with K-562 leukemia was more than 10 µM each time. Also, the TGI in the test with MDA-MB-231 breast, with MDA-MB-435, in the test with PC-3 prostate, in the test with SF-539 CNS and in the test with SK-OV-3 ovarian was more than 10 µM throughout.
Regarding `N=C(/C=C/c1ccc(-c2cn3cc(/C=C/C(=N)N4CCOCC4)ccc3n2)cc1)N1CCOCC1`, the TGI with A498 renal, in the test on A549 NSCLC, in the test on HCT-116 colon, in the test with HOP-62 NSCLC, with HS 578T breast and in the test on K-562 leukemia was more than 100 µM each time. For the same compound, the TGI in the test on MDA-MB-231 breast, with MDA-MB-435, in the test on PC-3 prostate, in the test on SF-539 CNS, with SK-OV-3 ovarian and in the test with U251 CNS was more than 100 µM each time.
In the case of `CCc1nnc2sc(-c3ccc(-c4ccc(Cl)cc4Cl)o3)nn12`, the TGI in the test on A498 renal, in the test on A549 NSCLC, in the test on HCT-116 colon, in the test on HOP-62 NSCLC, in the test with HS 578T breast and in the test with HT29 colon was more than 100 µM in each case. The TGI in the test on K-562 leukemia, in the test on MDA-MB-231 breast, in the test with MDA-MB-435, in the test with PC-3 prostate, in the test on SK-OV-3 ovarian and with U251 CNS was more than 100 µM each time.
As for `Fc1ccc(C(=NCc2ccccc2)N2CCOCC2)cc1`, the TGI in the test on A498 renal, in the test with HCT-116 colon, in the test with HOP-62 NSCLC, with HS 578T breast, in the test on HT29 colon and in the test with K-562 leukemia was more than 100 µM throughout. Moreover, the TGI in the test on MDA-MB-231 breast, in the test on MDA-MB-435, with PC-3 prostate, in the test on SF-539 CNS, in the test on SK-OV-3 ovarian and in the test on U251 CNS was more than 100 µM each time.
Take `O=[N+]([O-])c1ccccc1S(=O)(=O)N1CCCc2cc(Cl)ccc21`: the TGI in the test on A498 renal was 76.1 µM; in the test with A549 NSCLC, more than 100 µM; with HCT-116 colon, more than 100 µM; in the test with HOP-62 NSCLC it was more than 100 µM; in the test on HS 578T breast it was more than 100 µM; in the test on HT29 colon, 51.3 µM. Moreover, the TGI with K-562 leukemia is more than 75.2 µM; in the test with MDA-MB-231 breast, more than 100 µM; in the test on MDA-MB-435, 41.7 µM; in the test on PC-3 prostate, more than 100 µM; in the test with SF-539 CNS it was 97.2 µM; with SK-OV-3 ovarian, more than 100 µM.
Take `CC1OC(OC2C(CO)OC(O[C@H]3CC[C@@]4(C)C(=CC[C@H]5[C@@H]6C[C@@H]7O[C@](O)(CC[C@@H](C)COC8OC(CO)C(O)C(O)C8O)[C@@H](C)[C@@H]7[C@@]6(C)CC[C@@H]54)C3)C(OC3OC(C)C(O)C(O)C3O)C2O)C(O)C(O)C1O` (stereo partly specified): the TGI was more than 100 µM in the test on A498 renal; 3.16 µM with A549 NSCLC; 4.76 µM in the test with HCT-116 colon; 4.74 µM in the test with HOP-62 NSCLC; more than 100 µM in the test on HS 578T breast; more than 43.4 µM in the test on K-562 leukemia. Besides, the TGI was 14.8 µM in the test on MDA-MB-231 breast; 9.32 µM in the test with MDA-MB-435; 5.51 µM in the test with PC-3 prostate; 4.21 µM with SF-539 CNS; 7.34 µM in the test with SK-OV-3 ovarian; 3.62 µM with U251 CNS.
In the case of `CC(OC(C)(C)C)C(NC(=O)C(CCCCNC(=O)OC(C)(C)C)NC(=O)C(Cc1c[nH]c2ccccc12)NC(=O)C(Cc1ccccc1)NC(=O)OCC1c2ccccc2-c2ccccc21)C(=O)NC(Cc1ccccc1)C(=O)N[C@@H]1CCC[C@H]1C(=O)OCc1ccccc1` (stereo partly specified) (Fmoc-[ξF][ξW][ξK](Boc)[ξT](tBu)[ξF]-X37), the TGI in the test on A549 NSCLC, with HCT-116 colon, with HOP-62 NSCLC, in the test with HS 578T breast, in the test with HT29 colon and in the test on K-562 leukemia was more than 100 µM each time. Also, the TGI in the test on MDA-MB-231 breast, in the test on MDA-MB-435, in the test with PC-3 prostate, with SF-539 CNS, in the test with SK-OV-3 ovarian and in the test on U251 CNS was more than 100 µM throughout.
Turning to `CC(C)(C)NCC(O)COc1cccc2[nH]c(C#N)cc12` (stereo unspecified), the TGI in the test with A498 renal, in the test on A549 NSCLC, in the test with HCT-116 colon, with HOP-62 NSCLC, in the test with HS 578T breast and in the test with HT29 colon was more than 100 µM in each case. The TGI with MDA-MB-231 breast, in the test with MDA-MB-435, in the test on PC-3 prostate, in the test with SF-539 CNS, in the test with SK-OV-3 ovarian and in the test on U251 CNS was more than 100 µM each time.
In the case of `c1ccc(/C(=N/Nc2cnccn2)c2ncccn2)cc1`, the TGI in the test on A549 NSCLC, with HCT-116 colon, in the test on HOP-62 NSCLC, in the test with HS 578T breast, in the test on HT29 colon and in the test with K-562 leukemia was more than 100 µM throughout. Further, the TGI in the test with MDA-MB-231 breast, with MDA-MB-435, in the test on PC-3 prostate, with SF-539 CNS, in the test with SK-OV-3 ovarian and in the test with U251 CNS was more than 100 µM each time.
Consider `C#CCNC(Cc1ccccc1)C(=O)O` (stereo unspecified), for which the TGI with A498 renal, in the test with A549 NSCLC, in the test with HCT-116 colon, with HOP-62 NSCLC, in the test on HS 578T breast and in the test with HT29 colon was more than 100 µM throughout. Besides, the TGI in the test with K-562 leukemia, with MDA-MB-231 breast, in the test with MDA-MB-435, with PC-3 prostate, in the test with SK-OV-3 ovarian and in the test on U251 CNS was more than 100 µM in each case.
Turning to `COC(=O)c1ccc(/C=C/C2=CC(=O)C=CC2=O)cc1`, the TGI was 38.6 µM with A498 renal; more than 100 µM in the test with A549 NSCLC; 29.6 µM in the test with HCT-116 colon; more than 100 µM in the test with HOP-62 NSCLC; more than 100 µM in the test on HS 578T breast; 48.9 µM with HT29 colon. Further, the TGI is 8.55 µM with K-562 leukemia; more than 49.2 µM in the test on MDA-MB-231 breast; 44 µM in the test with MDA-MB-435; 60.6 µM in the test with PC-3 prostate; 45.6 µM in the test on SF-539 CNS; 41.7 µM with U251 CNS.
